Measurements taken from PMC4624765, “C-di-GMP Regulates Motile to Sessile Transition by Modulating MshA Pili Biogenesis and Near-Surface Motility Behavior in Vibrio cholerae” (PLoS Pathogens, 2015).

Assays:
MshE N-terminal domain = target: T1, MshE N-terminal domain (Vibrio cholerae, UniProt Q9KUV7); experiment: fluorescence thermal shift (SYPRO Orange); format: binding; conditions: 25 mM Tris-HCl pH 7.5, 100 mM NaCl, 0.2 mM MgCl2
T1 construct: gene VC_0405; N-terminal domain, residues 1-180, expressed in E. coli BL21
T1 sequence (Q9KUV7 1-180 limits assumed): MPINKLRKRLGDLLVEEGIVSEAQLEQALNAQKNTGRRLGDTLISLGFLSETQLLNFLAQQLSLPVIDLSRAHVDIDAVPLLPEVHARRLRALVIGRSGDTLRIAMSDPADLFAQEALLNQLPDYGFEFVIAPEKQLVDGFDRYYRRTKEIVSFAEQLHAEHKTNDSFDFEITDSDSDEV

VpsT = target: T2, VpsT (Vibrio cholerae, UniProt Q9KKZ8); experiment: biochemical
T2 construct: gene VC_A0952

MshE [1] = target: T3, MshE (Vibrio cholerae, UniProt Q9KUV7); experiment: biochemical; design: gene VC_0405
T3 sequence (Q9KUV7 1-575): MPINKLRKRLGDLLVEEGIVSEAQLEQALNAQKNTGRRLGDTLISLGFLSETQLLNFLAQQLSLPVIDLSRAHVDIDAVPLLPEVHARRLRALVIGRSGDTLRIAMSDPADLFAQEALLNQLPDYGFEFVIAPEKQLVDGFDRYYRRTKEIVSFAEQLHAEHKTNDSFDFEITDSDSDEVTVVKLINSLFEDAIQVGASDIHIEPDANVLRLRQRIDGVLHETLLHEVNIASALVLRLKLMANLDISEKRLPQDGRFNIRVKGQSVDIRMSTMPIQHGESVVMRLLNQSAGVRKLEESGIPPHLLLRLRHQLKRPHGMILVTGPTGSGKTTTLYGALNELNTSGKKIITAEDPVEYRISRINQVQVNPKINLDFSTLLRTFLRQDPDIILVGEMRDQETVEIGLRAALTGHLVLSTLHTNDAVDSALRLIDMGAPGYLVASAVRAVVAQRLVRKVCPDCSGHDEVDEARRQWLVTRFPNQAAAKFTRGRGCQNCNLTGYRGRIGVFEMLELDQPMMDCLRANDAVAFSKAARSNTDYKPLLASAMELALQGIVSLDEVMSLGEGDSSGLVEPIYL

MshE [2] = target: T3, MshE; experiment: fluorescence thermal shift (SYPRO Orange); format: binding; design: gene VC_0405; full-length, expressed in E. coli BL21, purified on GST column with glutathione elution; conditions: 25 mM Tris-HCl pH 7.5, 100 mM NaCl, 0.2 mM MgCl2

| SMILES | Tm with 2 mM ligand (MshE N-terminal domain) | Kd (VpsT) | Kd (MshE [1]) | Tm with 2 mM ligand (MshE [2]) |
| --- | --- | --- | --- | --- |
| Nc1nc2c(ncn2[C@@H]2O[C@@H]3COP(=O)(O)O[C@H]4[C@@H](O)[C@H](n5cnc6c(=O)[nH]c(N)nc65)O[C@@H]4COP(=O)(O)O[C@H]3[C@H]2O)c(=O)[nH]1 [c-di-GMP] | 70.18 ±0.55 °C | 10.1 µM | 8.77 µM | 42.77±0.70 °C |
| Nc1ncnc2c1ncn2[C@@H]1O[C@H](COP(=O)(O)OP(=O)(O)OP(=O)(O)O)[C@@H](O)[C@H]1O [ATP] | – | – | – | 40.15 ±1.02 °C |
